Active and inactive are the calls of the source.
Legend:
[1] = molecular target: Eukaryotic translation initiation factor 4E (Mus musculus, UniProt P63073); experiment: blockers of eIF4G binding by eIF4E – biochemical, TR-FRET, dose response (AID 855); type: functional;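 note: potency for disrupting eIF4E binding to eIF4GI seen as loss of FRET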
[2] = molecular target: 1-acylglycerol-3-phosphate O-acyltransferase ABHD5/Perilipin-5 (Homo sapiens, UniProt Q00G26+Q8WTS1); experiment: Luminescence-based biochemical high throughput dose response assay for inhibitors of the interaction of the lipase co-activator protein, abhydrolase domain containing 5 (ABHD5) with perilipin-5 (MLDP; PLIN5) (2K validation set). [Related pubchem assays (depositor defined):AID493035, AID493241]
Chain of 1-acylglycerol-3-phosphate O-acyltransferase ABHD5/Perilipin-5 (Q00G26 whole entry, the tested form may be a part): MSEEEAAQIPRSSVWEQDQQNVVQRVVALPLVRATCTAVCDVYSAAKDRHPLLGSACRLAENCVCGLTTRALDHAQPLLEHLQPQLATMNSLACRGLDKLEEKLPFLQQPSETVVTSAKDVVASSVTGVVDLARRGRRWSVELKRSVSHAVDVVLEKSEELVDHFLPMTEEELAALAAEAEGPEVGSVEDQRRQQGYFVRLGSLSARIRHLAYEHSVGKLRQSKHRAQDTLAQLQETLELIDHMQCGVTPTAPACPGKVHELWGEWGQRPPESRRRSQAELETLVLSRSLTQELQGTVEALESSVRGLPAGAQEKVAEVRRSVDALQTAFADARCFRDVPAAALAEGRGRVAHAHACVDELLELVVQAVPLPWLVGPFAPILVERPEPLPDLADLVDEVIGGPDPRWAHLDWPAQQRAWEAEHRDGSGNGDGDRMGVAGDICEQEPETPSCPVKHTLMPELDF
Chain of 1-acylglycerol-3-phosphate O-acyltransferase ABHD5/Perilipin-5 (Q8WTS1 whole entry, the tested form may be a part): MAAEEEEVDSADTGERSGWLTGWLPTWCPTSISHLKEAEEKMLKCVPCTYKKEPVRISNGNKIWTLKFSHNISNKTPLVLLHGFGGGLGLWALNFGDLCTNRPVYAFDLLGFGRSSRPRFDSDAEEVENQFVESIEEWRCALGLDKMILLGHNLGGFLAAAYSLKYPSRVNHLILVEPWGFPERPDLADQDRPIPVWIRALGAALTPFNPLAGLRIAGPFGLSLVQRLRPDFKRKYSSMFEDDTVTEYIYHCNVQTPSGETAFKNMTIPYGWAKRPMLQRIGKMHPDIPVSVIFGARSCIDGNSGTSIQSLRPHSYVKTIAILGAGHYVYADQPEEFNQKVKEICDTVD

Streptococcus = experiment: GAS UMAA2166 growth inhibition – luminescence, BacTiterGlo, counter-screen for streptokinase expression inhibitor project, dose response (AID 1915); type: functional, organism-based;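 note: potency for reduction of bacterial viability or growth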
Perilipin-1/ABHD5 = Perilipin-1/ABHD5 (Homo sapiens, UniProt O60240+Q8WTS1); experiment: Luminescence-based biochemical high throughput dose response assay for inhibitors of the interaction of the lipase co-activator protein, abhydrolase domain containing 5 (ABHD5) with perilipin-1 (PLIN1) (2K validation set). [Related pubchem assays (depositor defined):AID493027, AID493057]
Chain of Perilipin-1/ABHD5 (Q8WTS1 whole entry, the tested form may be a part): as above
Chain of Perilipin-1/ABHD5 (O60240 whole entry, the tested form may be a part): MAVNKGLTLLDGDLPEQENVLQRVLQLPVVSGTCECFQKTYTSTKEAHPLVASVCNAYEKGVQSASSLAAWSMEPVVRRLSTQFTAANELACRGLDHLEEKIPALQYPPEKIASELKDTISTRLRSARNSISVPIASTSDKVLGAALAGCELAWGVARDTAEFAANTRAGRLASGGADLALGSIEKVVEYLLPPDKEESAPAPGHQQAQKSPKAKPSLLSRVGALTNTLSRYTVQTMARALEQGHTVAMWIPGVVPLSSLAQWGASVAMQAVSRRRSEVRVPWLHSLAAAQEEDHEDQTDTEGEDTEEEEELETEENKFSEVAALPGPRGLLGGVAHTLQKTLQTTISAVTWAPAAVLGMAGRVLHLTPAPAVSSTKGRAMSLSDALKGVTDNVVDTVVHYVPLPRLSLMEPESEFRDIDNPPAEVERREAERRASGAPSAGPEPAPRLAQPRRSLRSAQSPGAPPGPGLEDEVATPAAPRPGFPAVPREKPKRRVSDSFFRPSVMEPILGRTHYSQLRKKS

[3] = molecular target: Glucose-6-phosphate 1-dehydrogenase (Homo sapiens, UniProt P11413); experiment: inhibition of Homo sapiens G6PD, dose series – biochemical, fluorescence, selectivity assay for P. falciparum G6PD inhibitor project, dose response (AID 504792); type: functional
Chain of Glucose-6-phosphate 1-dehydrogenase (P11413 whole entry): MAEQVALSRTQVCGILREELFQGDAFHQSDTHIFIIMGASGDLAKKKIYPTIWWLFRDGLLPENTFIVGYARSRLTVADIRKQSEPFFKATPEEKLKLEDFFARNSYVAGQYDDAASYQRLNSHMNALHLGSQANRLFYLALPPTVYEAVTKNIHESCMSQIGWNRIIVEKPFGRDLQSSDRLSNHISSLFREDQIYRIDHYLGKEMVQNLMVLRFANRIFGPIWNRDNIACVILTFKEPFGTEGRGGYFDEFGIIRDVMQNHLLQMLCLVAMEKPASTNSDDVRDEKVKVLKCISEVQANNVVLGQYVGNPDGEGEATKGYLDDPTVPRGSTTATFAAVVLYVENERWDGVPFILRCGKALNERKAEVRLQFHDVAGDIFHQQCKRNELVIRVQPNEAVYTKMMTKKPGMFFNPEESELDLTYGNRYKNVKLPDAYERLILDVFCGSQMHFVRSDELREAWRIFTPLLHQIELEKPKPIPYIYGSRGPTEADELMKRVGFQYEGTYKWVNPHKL

Hexokinase HKDC1 = molecular target: T1, Hexokinase HKDC1 (Homo sapiens, UniProt Q2TB90); experiment: activation of HKDC1 glucose phosphorylation – biochemical, W721R variant, dose response (AID 504730); type: functional
T1 sequence (Q2TB90 whole entry): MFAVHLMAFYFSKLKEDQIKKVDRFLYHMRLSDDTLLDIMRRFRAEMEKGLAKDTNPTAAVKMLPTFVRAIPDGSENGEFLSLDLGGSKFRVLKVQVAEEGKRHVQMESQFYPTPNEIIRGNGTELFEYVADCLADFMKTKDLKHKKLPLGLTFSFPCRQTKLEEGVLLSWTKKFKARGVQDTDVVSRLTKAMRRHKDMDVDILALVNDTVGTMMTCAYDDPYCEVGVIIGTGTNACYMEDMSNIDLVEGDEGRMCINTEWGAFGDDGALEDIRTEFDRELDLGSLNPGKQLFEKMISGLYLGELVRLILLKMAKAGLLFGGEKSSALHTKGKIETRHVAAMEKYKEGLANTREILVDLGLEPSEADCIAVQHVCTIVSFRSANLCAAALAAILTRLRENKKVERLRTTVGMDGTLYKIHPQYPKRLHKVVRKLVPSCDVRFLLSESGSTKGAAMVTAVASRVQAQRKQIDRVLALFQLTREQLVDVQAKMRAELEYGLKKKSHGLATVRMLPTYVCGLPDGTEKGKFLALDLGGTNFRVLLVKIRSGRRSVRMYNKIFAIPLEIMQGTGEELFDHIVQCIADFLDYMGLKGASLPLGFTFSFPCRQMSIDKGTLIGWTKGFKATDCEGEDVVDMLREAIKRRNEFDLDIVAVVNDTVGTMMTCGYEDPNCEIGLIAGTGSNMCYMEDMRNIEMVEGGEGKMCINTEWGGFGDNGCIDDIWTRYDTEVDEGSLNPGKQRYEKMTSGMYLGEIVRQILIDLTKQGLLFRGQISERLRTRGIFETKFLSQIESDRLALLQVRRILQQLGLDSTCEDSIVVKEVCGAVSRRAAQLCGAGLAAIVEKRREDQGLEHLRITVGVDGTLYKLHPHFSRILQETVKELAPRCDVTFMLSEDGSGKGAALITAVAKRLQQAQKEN

[4] = molecular target: Phosphoethanolamine/phosphocholine phosphatase (Homo sapiens, UniProt Q8TCT1); experiment: SAR assay for compounds that inhibit PHOSPHO1. [Related pubchem assays (depositor defined):AID1545, AID1565, AID1574]
Chain of Phosphoethanolamine/phosphocholine phosphatase (Q8TCT1 whole entry): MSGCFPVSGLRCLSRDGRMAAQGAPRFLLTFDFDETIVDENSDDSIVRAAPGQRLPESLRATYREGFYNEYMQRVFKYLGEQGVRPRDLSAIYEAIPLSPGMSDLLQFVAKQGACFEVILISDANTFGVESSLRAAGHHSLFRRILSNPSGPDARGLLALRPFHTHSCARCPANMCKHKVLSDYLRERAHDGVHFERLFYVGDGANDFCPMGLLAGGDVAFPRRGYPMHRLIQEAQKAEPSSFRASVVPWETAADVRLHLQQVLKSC

Large T antigen = Large T antigen (Simian virus 40, UniProt P03070); type: functional, Betapolyomavirus macacae;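 note: Confirmatory-stage PubChem screen for compounds that inhibit SV40 T antigen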
Chain of Large T antigen (P03070 whole entry): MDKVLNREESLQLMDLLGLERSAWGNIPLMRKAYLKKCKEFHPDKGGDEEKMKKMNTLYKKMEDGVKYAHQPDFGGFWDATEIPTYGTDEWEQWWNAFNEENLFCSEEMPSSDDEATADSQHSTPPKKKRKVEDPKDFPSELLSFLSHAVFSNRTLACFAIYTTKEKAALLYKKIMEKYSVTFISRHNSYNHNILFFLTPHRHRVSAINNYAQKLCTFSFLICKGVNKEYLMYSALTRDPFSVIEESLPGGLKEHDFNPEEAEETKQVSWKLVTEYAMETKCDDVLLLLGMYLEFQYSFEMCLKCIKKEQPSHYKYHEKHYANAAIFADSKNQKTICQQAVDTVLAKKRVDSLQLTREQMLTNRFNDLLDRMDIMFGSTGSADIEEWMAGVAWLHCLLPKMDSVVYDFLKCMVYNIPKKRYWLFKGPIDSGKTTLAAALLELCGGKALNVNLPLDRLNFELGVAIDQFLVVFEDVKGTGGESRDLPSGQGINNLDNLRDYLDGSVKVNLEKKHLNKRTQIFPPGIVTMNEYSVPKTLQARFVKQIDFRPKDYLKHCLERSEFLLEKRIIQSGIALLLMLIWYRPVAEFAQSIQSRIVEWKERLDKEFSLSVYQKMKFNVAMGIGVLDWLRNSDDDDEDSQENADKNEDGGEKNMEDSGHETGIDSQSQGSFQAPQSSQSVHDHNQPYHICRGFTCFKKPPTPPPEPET

Beta-arrestin-1 = Beta-arrestin-1 (Homo sapiens, UniProt P49407); experiment: beta-arrestin/AP2 interaction blockers, potency – biochemical, cherry pick 1, beta2-adaptin appendage, flow cytometry, dose response (AID 588783); type: functional
Chain of Beta-arrestin-1 (P49407 whole entry): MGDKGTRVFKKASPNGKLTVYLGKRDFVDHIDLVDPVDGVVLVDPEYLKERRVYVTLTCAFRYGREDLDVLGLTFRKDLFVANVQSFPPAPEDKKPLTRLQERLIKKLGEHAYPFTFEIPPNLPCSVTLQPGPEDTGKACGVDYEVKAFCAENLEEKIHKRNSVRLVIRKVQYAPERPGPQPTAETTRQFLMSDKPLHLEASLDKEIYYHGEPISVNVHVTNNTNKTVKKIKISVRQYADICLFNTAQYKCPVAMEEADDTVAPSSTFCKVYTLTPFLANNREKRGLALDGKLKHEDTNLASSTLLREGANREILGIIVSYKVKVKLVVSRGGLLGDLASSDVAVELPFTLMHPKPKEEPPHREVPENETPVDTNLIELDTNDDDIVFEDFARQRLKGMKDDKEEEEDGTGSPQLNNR

[5] = system: Streptococcus sp. 'group A'; experiment: Streptococcus pyogenes SK(-)GAS viability under kanamycin – luminescence, BacTiterGlo, confirmation, counter-screen for streptokinase expression inhibitor project, dose response (AID 1900); type: functional, organism-based; conditions: read-out: EC50
[6] = molecular target: Voltage-gated inwardly rectifying potassium channel KCNH2 (Homo sapiens, UniProt Q12809); conditions: Potency;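 note: confirmatory quantitative high-throughput screen measuring inhibition of hERG channel activity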
Chain of Voltage-gated inwardly rectifying potassium channel KCNH2 (Q12809 whole entry): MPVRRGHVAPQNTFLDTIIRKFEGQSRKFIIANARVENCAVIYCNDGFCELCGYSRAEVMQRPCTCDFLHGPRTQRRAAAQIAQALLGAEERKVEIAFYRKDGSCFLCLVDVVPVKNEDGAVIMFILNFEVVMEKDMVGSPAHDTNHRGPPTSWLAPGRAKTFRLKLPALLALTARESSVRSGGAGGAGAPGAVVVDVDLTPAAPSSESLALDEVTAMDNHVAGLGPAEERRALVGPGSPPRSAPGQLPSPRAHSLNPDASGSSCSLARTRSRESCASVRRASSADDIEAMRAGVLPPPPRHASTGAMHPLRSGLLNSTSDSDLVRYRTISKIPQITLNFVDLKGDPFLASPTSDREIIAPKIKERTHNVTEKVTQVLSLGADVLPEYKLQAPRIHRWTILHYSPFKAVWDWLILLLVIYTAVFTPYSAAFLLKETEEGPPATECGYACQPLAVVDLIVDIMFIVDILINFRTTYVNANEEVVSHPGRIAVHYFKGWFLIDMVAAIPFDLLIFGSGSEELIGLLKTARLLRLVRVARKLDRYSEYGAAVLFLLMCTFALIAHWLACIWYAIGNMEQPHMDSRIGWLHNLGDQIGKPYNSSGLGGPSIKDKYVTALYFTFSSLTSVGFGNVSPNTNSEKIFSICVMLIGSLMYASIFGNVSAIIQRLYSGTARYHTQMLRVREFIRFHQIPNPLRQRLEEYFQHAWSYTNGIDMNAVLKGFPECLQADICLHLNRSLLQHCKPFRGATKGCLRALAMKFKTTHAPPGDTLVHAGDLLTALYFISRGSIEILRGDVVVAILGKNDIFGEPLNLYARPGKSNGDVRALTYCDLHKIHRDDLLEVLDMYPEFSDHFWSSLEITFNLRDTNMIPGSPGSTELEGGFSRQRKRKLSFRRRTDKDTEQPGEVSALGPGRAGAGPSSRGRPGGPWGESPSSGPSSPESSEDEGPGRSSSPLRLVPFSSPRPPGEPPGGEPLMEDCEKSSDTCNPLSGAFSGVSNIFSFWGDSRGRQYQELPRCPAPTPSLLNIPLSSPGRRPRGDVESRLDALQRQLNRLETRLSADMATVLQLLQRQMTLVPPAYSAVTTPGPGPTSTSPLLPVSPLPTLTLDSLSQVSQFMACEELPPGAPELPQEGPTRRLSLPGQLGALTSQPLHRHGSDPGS

Hexokinase-1 = molecular target: T2, Hexokinase-1 (Homo sapiens, UniProt P19367); experiment: HK1 enzyme activation by HKDC1 hits – biochemical, selectivity assay for HKDC1 activator project, dose response (AID 504762); type: functional
T2 sequence (P19367 whole entry): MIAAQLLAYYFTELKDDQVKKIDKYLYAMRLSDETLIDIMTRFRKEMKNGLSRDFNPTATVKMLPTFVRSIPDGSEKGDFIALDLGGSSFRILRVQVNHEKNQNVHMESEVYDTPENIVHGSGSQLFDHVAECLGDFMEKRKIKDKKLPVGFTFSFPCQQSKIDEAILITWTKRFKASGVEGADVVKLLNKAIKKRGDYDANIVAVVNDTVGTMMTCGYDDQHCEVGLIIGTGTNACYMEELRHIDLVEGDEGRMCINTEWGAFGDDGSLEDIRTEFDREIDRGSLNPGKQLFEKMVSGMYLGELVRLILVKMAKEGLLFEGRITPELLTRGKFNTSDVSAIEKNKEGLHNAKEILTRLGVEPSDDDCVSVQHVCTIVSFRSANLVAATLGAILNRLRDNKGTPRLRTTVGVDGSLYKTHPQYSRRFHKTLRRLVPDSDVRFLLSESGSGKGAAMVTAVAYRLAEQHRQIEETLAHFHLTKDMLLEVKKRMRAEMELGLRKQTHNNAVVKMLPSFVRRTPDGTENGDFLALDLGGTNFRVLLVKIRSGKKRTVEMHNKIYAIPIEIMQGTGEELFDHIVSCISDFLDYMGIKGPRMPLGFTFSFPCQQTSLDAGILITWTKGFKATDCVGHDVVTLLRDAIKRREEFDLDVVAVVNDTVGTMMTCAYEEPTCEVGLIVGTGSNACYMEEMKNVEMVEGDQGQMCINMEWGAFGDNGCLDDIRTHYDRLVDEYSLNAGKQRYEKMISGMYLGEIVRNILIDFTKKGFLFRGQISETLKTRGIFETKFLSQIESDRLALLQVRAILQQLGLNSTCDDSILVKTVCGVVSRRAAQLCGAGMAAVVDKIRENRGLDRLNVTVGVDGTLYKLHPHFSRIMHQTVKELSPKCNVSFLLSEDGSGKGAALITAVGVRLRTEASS

[7] = COV434 cell viability loss – plate reader, dry powder, SA7, cytotoxicity control for PAX8 inhibitor project, dose response (AID 743145); type: functional, cell-based
[8] = toxicity toward HepG2 liver cells – cell-based, plate reader, cherry-pick, antagonist series, cytotoxicity control, dose response (AID 743416); type: functional
[9] = COV362 cell viability loss – plate reader, dry powder, SA12, cytotoxicity control for PAX8 inhibitor project, dose response (AID 743144); type: functional, cell-based
A-375 [10] = experiment: MITF: Counter assay: A375 proliferation Measured in Cell-Based System Using Plate Reader - 2084-03_Inhibitor_Dose_DryPowder_Activity. [Related pubchem assays (depositor defined):AID488944]; type: functional; conditions: Homo sapiens
Paired box protein Pax-8 = Paired box protein Pax-8 (Homo sapiens, UniProt Q06710); experiment: PAX8 transcriptional activity inhibition in RMG-I – RMG-I cells, luciferase, cherry-pick, dose response (AID 687027); type: functional, cell-based;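 note: luciferase reporter driven by Pax8 target thyroperoxidase promoter measured by SteadyGlo luminescence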
[11] = molecular target: T3, Heat shock factor protein 1 (Mus musculus, UniProt P38532); experiment: decrease of HSF1-responsive luciferase luminescence – cell-based, NIH3T3, dose retest, confirmation (AID 2382); type: functional;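 note: NIH3T3 fibroblasts with HSF1-driven luciferase reporter stressed by proteasome inhibitor MG132; luminescence from HSF1-driven luciferase expression after 8 hours of MG132 stress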
T3 sequence (P38532 whole entry): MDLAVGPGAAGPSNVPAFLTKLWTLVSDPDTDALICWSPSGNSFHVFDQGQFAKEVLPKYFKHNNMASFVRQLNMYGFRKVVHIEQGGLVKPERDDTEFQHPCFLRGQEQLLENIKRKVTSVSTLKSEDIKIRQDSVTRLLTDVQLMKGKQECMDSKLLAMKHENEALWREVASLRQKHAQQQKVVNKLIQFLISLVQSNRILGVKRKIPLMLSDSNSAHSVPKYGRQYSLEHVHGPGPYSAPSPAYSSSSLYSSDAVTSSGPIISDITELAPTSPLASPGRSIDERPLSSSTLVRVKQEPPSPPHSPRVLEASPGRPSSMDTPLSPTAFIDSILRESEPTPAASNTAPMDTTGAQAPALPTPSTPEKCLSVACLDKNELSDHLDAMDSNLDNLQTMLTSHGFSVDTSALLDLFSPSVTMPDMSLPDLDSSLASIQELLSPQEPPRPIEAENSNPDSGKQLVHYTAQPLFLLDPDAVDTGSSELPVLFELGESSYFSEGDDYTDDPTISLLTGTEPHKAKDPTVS

Jurkat = experiment: blockers of NF-kB activation in T cells – Jurkat, luciferase reporter, luminescence, B- and T-cell, dose response (AID 489004); type: functional, cell-based; conditions: Homo sapiens;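 note: NF-kB luciferase reporter Jurkat cells stimulated with PMA plus ionomycin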
[12] = IGROV1 cell killing – plate reader, dry powder samples, PAX8 inhibitor project, dose response (AID 743043); type: functional, cell-based; conditions: IGROV-1
[13] = viability loss in HEK293 cells – cell-based, plate reader, cherry-picked samples, cytotoxicity control, dose response (AID 743446); type: functional
[14] = inhibitors acting on PAX2 in cells – cell-based, plate reader, dry powder samples, selectivity assay for PAX8 inhibitor project, dose response (AID 743048); type: functional;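 note: HEK293 cells carrying a WT1 promoter luciferase reporter driven by expressed Pax2; potency is for inhibition of Pax2 driven reporter signal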
[15] = OV-90 cell viability loss – plate reader, dry powder, SA8, PAX8 inhibitor project, dose response (AID 743149); type: functional, cell-based
[16] = blockers of bursicon-stimulated LGR2 cAMP reporter – cell-based, HEK293, CRE-luciferase reporter, cherry pick, set 2, dose response (AID 743343); type: functional;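 note: transfected cells were stimulated with diluted bursicon conditioned medium after compound addition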
[17] = HEK-293T viability loss, compound-treated – cell-based, uHTS hits, cytotoxicity control for B/T-cell NF-kB inhibitor project, dose response (AID 489019); type: functional;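 note: IC50 reflects cytotoxicity as loss of cell viability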
[18] = PAX8-dependent cell viability loss – plate reader, dry powder, dose response (AID 743049); type: functional, cell-based
[19] = molecular target: T4, Microphthalmia-associated transcription factor (Homo sapiens, UniProt O75030); experiment: reducers of TRPM1 reporter luminescence, concentration series – cell-based, SK-MEL-5, cherry-picked, set 3, MITF inhibitor project, dose response (AID 493073); type: functional;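 note: SK-MEL-5 melanoma cells with luciferase driven by the MITF target TRPM1 promoter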
T4 sequence (O75030 whole entry): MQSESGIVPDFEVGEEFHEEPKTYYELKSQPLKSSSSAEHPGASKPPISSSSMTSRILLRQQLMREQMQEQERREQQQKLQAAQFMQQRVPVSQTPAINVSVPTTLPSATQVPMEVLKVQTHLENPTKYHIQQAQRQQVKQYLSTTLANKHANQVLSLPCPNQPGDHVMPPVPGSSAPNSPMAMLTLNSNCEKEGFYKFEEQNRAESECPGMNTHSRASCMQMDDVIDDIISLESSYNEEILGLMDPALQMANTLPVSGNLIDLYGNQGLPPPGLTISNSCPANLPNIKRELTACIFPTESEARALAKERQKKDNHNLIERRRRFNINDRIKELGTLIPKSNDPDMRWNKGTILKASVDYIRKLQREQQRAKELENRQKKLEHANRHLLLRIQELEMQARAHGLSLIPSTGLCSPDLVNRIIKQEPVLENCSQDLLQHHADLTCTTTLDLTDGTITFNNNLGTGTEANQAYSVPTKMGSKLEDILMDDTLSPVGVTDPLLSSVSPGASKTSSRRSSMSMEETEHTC

[20] = blockade of melanocortin 4 receptor signaling – cell-based, plate reader, cherry pick, counter-screen for LGR2 antagonist project, dose response (AID 743444); type: functional;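 note: transfected HEK 293 cells stimulated with alpha-MSH peptide; potency of inhibitors of the alpha-MSH evoked signal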
[21] = PAX5 cellular inhibition readout – cell-based, plate reader, dry powder samples, selectivity assay for PAX8 inhibitor project, dose response (AID 743047); type: functional;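 note: HEK293 cells carrying a Pax5 driven CD19 promoter luciferase reporter; potency of inhibitors that lower reporter luminescence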
A-375 [22] = experiment: proliferation inhibition in MITF-low A375 cells – cell-based, cherry-pick samples, set 2, counter-screen for MITF modulator project, dose response (AID 540335); type: functional; conditions: Homo sapiens
[23] = molecular target: sn-1-specific diacylglycerol lipase ABHD11 (Mus musculus, UniProt Q8K4F5); experiment: Late stage assay provider results from the probe development effort to identify inhibitors of LYPLA1 and LYPLA2: Gel-based Activity-Based Protein Profiling (ABPP) IC50 for off-target ABHD11. [Related pubchem assays (depositor defined):AID2174, AID2202, AID2203, AID2233, AID504482, AID504498, AID504505, AID504507, AID504510, AID504520, AID504522, AID504892]; type: functional
Chain of sn-1-specific diacylglycerol lipase ABHD11 (Q8K4F5 whole entry): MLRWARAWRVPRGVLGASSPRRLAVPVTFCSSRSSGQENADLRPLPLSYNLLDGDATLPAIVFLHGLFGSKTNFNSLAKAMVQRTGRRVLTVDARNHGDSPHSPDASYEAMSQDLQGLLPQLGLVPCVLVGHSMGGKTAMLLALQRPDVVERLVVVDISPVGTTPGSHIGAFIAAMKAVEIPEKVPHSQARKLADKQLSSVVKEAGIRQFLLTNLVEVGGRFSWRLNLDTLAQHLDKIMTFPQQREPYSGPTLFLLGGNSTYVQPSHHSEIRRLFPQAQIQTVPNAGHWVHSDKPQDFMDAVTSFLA

Chain of Eukaryotic translation initiation factor 4E (P63073 whole entry, the tested form may be a part): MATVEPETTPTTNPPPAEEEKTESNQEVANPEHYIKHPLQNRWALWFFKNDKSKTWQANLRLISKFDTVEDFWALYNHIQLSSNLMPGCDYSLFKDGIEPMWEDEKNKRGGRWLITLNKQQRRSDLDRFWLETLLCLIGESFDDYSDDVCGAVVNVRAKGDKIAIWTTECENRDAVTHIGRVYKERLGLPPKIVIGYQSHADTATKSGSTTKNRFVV

O=c1c2ccccc2[se]n1-c1ccccc1 [EBSELEN]
IC50 [1]: 1.15 µM (active) | IC50 [2]: 1.1 µM (active) | EC50 (Streptococcus): 975 nM (active) | IC50 (Perilipin-1/ABHD5): 3.41 µM (active) | IC50 [3]: 13.2 µM (active) | EC50 (Hexokinase HKDC1): 38.8 µM (inactive) | IC50 [4]: 111 nM (active) | IC50 (Large T antigen): 13.9 µM (active) | IC50 (Beta-arrestin-1): 1.52 µM (active) | EC50 [5]: 1.1 µM (active) | AC50 [6]: 35.5 µM (inconclusive) | EC50 (Hexokinase-1): 41.9 µM (inactive)

O=C(/C=C/c1ccccc1)Nc1cccc(C(=O)O)c1
AC50 [7]: > 100 µM (inactive) | AC50 [8]: > 52 µM (inactive) | AC50 [9]: 77.2 µM (active) | AC50 (A-375 [10]): > 35 µM (active) | AC50 (Paired box protein Pax-8): 4.06 µM (active) | EC50 [11]: 1.73 µM (active) | IC50 (Jurkat): 1.4 µM (active) | AC50 [12]: 49 µM (active) | AC50 [13]: > 52 µM (inactive) | AC50 [14]: 2.07 µM (active) | AC50 [15]: > 100 µM (inactive) | AC50 [16]: 833 nM (active) | IC50 [17]: > 80 µM (inactive) | AC50 [18]: 32.2 µM (active) | AC50 [19]: 1.52 µM (active) | AC50 [20]: 592 nM (active) | AC50 [21]: 2.67 µM (active) | AC50 (A-375 [22]): > 35 µM (active)

CC(C)(C)C1CCN(C(=O)n2ncc(C(O)(c3ccccc3)c3ccccc3)n2)CC1
IC50 [23]: 10 nM (active)
